US6747021B2, “Cryptophycin compound” (Eli Lilly and Company, priority 2000, dated 2004)
Like-named read-outs stand apart in the source and are kept apart here.

Experiments:
[1] = system: MAMMARY ADENOCARCINOMA 16/C; type: in vivo, murine; conditions: C3H/HeN female mice
Source text: (§1) Inhibition of tumors transplanted into mice is an accepted procedure for studying the efficacy of antitumor agents (Corbett, et al., In vivo Methods for Screening and Preclinical Testing; Use of rodent solid tumors for drug discovery., In: Anticancer Drug Development Guide: Preclinical Screening, Clinical Trials, and Approval, B. Teicher (ed), Humana Press Inc., Totowa, N.J., Chapter 5, pages 75-99 (1997); (Corbett, et al., Int. J. Pharmacog., 33, Supplement, 102-122 (1995)). Murine tumors or human xenographs were implanted essentially as described by Corbett in In vivo Methods for Screening and Preclinical Testing; Use of rodent solid tumors for drug discovery. Briefly, the murine tumor or human xenograph was implanted subcutaneously using either 12-gauge trocar implants or counted number of cells. The location for the trocar insertion is midway between the axillary and inguinal region along the side of the mouse. The trocar is slipped approximately ¾ of an inch subcutaneously up toward the axilla before discharging the tumor fragment, and pinching the skin as the trocar is removed. Alternatively, human tumor cells prepared from a […] of donor tumors (5×10^6 cells) were implanted subcutaneously in a hind-leg of a male or female nude mouse (Charles River). Either a test compound in vehicle or vehicle alone was administered by intravenous bolus injection (iv), intraperitoneal injection (ip), or oral gavage (po). Each treatment group, as well as a group of untreated control animals, consisted of five animals per group in each experiment. Subcutaneous tumor response was monitored by tumor volume measurement performed twice each week over the course of the experiment (60-120 days). Body weights were taken as a general measure of toxicity. The subcutaneous tumor data were analyzed by determining the median tumor weight for each treatment group over the course of the experiment and calculating the tumor growth delay as the difference in days for the treatment versus the control tumors to reach a volume of either 500 or 1000 mm^3.
(§2) Cryptophycin-309 (309) was tested against a variety of murine and human tumors substantially as described supra. Cryptophycin-55 glycinate (55-GLY), Taxol, and Adriamycin (Adria) were also included in certain tests for purposes of comparison. Cryptophycin 55 glycinate is known in the art (WO 98/08505, Example 9) and has the following structure: [drawing 9]
(§3) Tumor Weight(mg)=(a×b^2)/2 where a=tumor length (mm) and b=tumor width (mm).
(§4) Tumor Growth Delay=T−C where T is the median time (days) required for the treatment group tumors to reach a predetermined size, and C is the median time (days) for the control group tumors to reach the same size. Tumor-free survivors are excluded from this calculation, and are tabulated separately (Tumor Free).
(§5) Log Kill=Tumor Growth Delay/(3.32)(Td)
(§6) where Tumor Growth Delay is as previously defined and Td is tumor volume doubling time (days), estimated from the best fit straight line from a log-linear growth plot of the control group of tumors in exponential growth (100-800 mg range)
(§7) %T/C mass—The treatment and control groups are measured when the control group tumors reach approximately 700 to 1200 mg in size (median group). The median tumor weight of each group is determined (including zeros). The T/C value in percent is an indication of antitumor effectiveness. A T/C≦42% is considered significant antitumor activity. A T/C<10% is considered to indicate highly significant antitumor activity.
(§8) Body Weight Loss Nadir—A body weight loss nadir (mean of group) of greater than 20% or drug deaths greater than 20% are considered to indicate an excessively toxic dosage in single course trials.
(§9) Activity Rating—the Activity Rating is derived from the Log Kill according to the following table: […]

[2] = system: MAMMARY ADENOCARCINOMA-17/ADR/Resist.; type: in vivo, murine; conditions: IV 30 mg/kg/inj days 1,3,5,7,9; total dose 150 mg/kg; C3H female mice
Source text: as §1, §2, §3, §4, §5, §6, §7, §8, §9

[3] = system: COLON ADENOCARCINOMA-26/A; type: in vivo, murine; conditions: Balb/C female mice
Source text: as §1, §2, §3, §4, §5, §6, §7, §8, §9

[4] = system: PANCREATIC DUCTAL ADENOCARCINOMA #02; type: in vivo, murine; conditions: BDF1 female mice
Source text: as §1, §2, §3, §4, §5, §6, §7, §8, §9

[5] = system: HUMAN COLON ADENOCARCINOMA 15; type: in vivo; conditions: Balb/C SCID female mice
Source text: as §1, §2, §3, §4, §5, §6, §7, §8, §9

[6] = IV 20 mg/kg/inj days 3,5,7,9,11, total dose 100 mg/kg
[7] = IV 30 mg/kg/inj days 3,5,7,9,11, total dose 150 mg/kg
[8] = IV 15 mg/kg/inj days 1,3,5,7,9, total dose 75 mg/kg
[9] = IV 23 mg/kg/inj days 1,3,5,7,9, total dose 115 mg/kg
[10] = IV 35 mg/kg/inj days 1,3,5,7,9, total dose 175 mg/kg
[11] = IV 20 mg/kg/inj days 1,3,5,7,9, total dose 100 mg/kg, experiment #
[12] = IV 30 mg/kg/inj days 1,3,5,7,9, total dose 150 mg/kg, experiment #
[13] = IV 33 mg/kg/inj days 1,3,5,7,9, total dose 165 mg/kg, experiment ##
[14] = IV 16.5 mg/kg/inj days 3,5,7,9,11, total dose 82.5 mg/kg
[15] = IV 25 mg/kg/inj days 3,5,7,9,11, total dose 125 mg/kg
[16] = IV 38 mg/kg/inj days 3,5,7,9,11, total dose 190 mg/kg

COc1ccc(C[C@H]2NC(=O)/C=C/C[C@@H]([C@H](C)[C@@H](OC(=O)CN)[C@@H](Cl)c3ccccc3)OC(=O)[C@H](CC(C)(C)C)OC(=O)[C@H](C)CNC2=O)cc1Cl [Cryptophycin 309, Cryptophycin-309]
% T/C MASS [1, 6]: 0% | ACTIVITY RATING [1, 6]: ++++ (>2.8) | DRUG DEATHS [1, 6]: 0/5 | GROWTH DELAY [1, 6]: 17 days | LOG KILL [1, 6]: 3.9 | MEDIAN TUMOR WEIGHT [1, 6]: 0 mg | % T/C MASS [1, 7]: 0% | ACTIVITY RATING [1, 7]: ++++ (>2.8) | DRUG DEATHS [1, 7]: 0/5 | GROWTH DELAY [1, 7]: 16.5 days | LOG KILL [1, 7]: 3.8 | MEDIAN TUMOR WEIGHT [1, 7]: 0 mg | % T/C MASS [2]: 0% | ACTIVITY RATING [2]: ++++ (>2.8) | DRUG DEATHS [2]: 0/5 | GROWTH DELAY [2]: 10.75 days | LOG KILL [2]: 3.23 | MEDIAN TUMOR WEIGHT [2]: 0 mg | % T/C MASS [3, 8]: 14% | ACTIVITY RATING [3, 8]: + (0.7-1.2) | DRUG DEATHS [3, 8]: 0/5 | GROWTH DELAY [3, 8]: 6.65 days | LOG KILL [3, 8]: 1.2 | MEDIAN TUMOR WEIGHT [3, 8]: 126 mg | % T/C MASS [3, 9]: 0% | ACTIVITY RATING [3, 9]: +++ (2.0-2.8) | DRUG DEATHS [3, 9]: 0/5 | GROWTH DELAY [3, 9]: 12.75 days | LOG KILL [3, 9]: 2.3 | MEDIAN TUMOR WEIGHT [3, 9]: 0 mg | % T/C MASS [3, 10]: 0% | ACTIVITY RATING [3, 10]: +++ (2.0-2.8) | DRUG DEATHS [3, 10]: 0/5 | GROWTH DELAY [3, 10]: 15.25 days | LOG KILL [3, 10]: 2.7 | MEDIAN TUMOR WEIGHT [3, 10]: 0 mg | % T/C MASS [4, 11]: 3.8% | ACTIVITY RATING [4, 11]: ++ (1.3-1.9) | DRUG DEATHS [4, 11]: 0/5 | GROWTH DELAY [4, 11]: 13 days | LOG KILL [4, 11]: 1.7 | MEDIAN TUMOR WEIGHT [4, 11]: 63 mg | % T/C MASS [4, 12]: 3.8% | ACTIVITY RATING [4, 12]: ++ (1.3-1.9) | DRUG DEATHS [4, 12]: 0/5 | GROWTH DELAY [4, 12]: 13 days | LOG KILL [4, 12]: 1.7 | MEDIAN TUMOR WEIGHT [4, 12]: 64 mg | % T/C MASS [4, 13]: 0% | ACTIVITY RATING [4, 13]: +++ (2.0-2.8) | DRUG DEATHS [4, 13]: 0/5 | GROWTH DELAY [4, 13]: 15.25 days | LOG KILL [4, 13]: 2.7 | MEDIAN TUMOR WEIGHT [4, 13]: 0 mg | % T/C MASS [5, 14]: 11% | ACTIVITY RATING [5, 14]: +++ (2.0-2.8) | DRUG DEATHS [5, 14]: 0/5 | GROWTH DELAY [5, 14]: 24.5 days | LOG KILL [5, 14]: 2.5 | MEDIAN TUMOR WEIGHT [5, 14]: 126 mg | % T/C MASS [5, 15]: 0% | ACTIVITY RATING [5, 15]: ++++ (>2.8) | DRUG DEATHS [5, 15]: 0/5 | GROWTH DELAY [5, 15]: 31.5 days | LOG KILL [5, 15]: 3.2 | MEDIAN TUMOR WEIGHT [5, 15]: 0 mg | % T/C MASS [5, 16]: 0% | ACTIVITY RATING [5, 16]: ++++ (>2.8) | DRUG DEATHS [5, 16]: 0/5 | GROWTH DELAY [5, 16]: 32.5 days | LOG KILL [5, 16]: 3.3 | MEDIAN TUMOR WEIGHT [5, 16]: 0 mg
